Results reported in patent publication US9402827B2, “Treatment of gout” (ARDEA BIOSCIENCES, INC., priority 2010, dated 2016).
Several values for one entry are separate records, joined by “and”; a condition that tells them apart may be missing. Identical values can stand only once.

Assays:
[1] = test system: monosodium urate (MSU) crystal injection-induced inflammation; assay: In vivo MSU-induced inflammation, rat air pouch study (Example 3B); parameters: species or system Sprague-Dawley rats; details: for Extravasation (optical absorbance at 620 nm), Av / Extravasation (optical absorbance at 620 nm), individual rats 1-10 / Exudate volume, Av / Exudate volume, individual rats 1-10 / Total white blood cell count, Av / Total white blood cell count, individual rats 1-10: 4 h after MSU
Description: (Air Pouch studies) were unpacked, placed in cages, a health inspection performed and a number assigned. […] Under anesthesia, 30 mL sterile air was injected subcutaneously on day 0 and day 3. Vehicle (water) or Lesinurad were administered orally. On the day of the experiment, rats were dosed with Vehicle, Lesinurad p.o., and/or colchicine s.c. (Sigma, Cat.#C9754, Lot.#188K1131). […] The pouch was gently massaged and the exudate was immediately removed from the air pouch. The exudate volume was measured and recorded for each animal. […] The supernatants were stored at −20° C. for cytokine analysis. […] Plasma extravasation was measured by optical absorbance at 620 nm for each exudate sample.

[2] = test system: gout flares; assay: Phase II clinical trial, gout dose response study: incidence of gout flares (Example 4); assay type: in vivo, human
Description: Purpose: To compare the proportion of subjects whose serum urate (sUA) level is <6.0 mg/dL after 28 days of dosing by treatment group. Official Title: Randomized, Double-Blind, Multicenter, Placebo-Controlled, Safety and Efficacy Study of Lesinurad Versus Placebo in the Treatment of Hyperuricemia in Patients With Gout Experimental dosage form: 200 mg capsule of Lesinurad, with appropriate pharmaceutically acceptable excipients Design: • Control: Placebo Control • Endpoint Classification: Safety/Efficacy Study • Intervention Model: Parallel Assignment • Masking: Double Blind (Subject, Caregiver, Investigator, Outcomes Assessor) • Primary Purpose: Treatment Primary Outcome Measures: Compare the proportion of subjects whose serum urate (sUA) level is <6.0 mg/dL after 28 days of dosing by treatment group. […] [table] Inclusion Criteria: • Male or post-menopausal or surgically sterile female. • Hyperuricemic (i.e., screening sUA≧8 mg/dL). • Meets criteria for the diagnosis of gout as per the American Rheumatism Association (ARA) Criteria for the Classification of Acute Arthritis of Primary Gout (see Appendix B). • Willing and able to give informed consent and adhere to visit/protocol schedules (informed consent must be given before the first study procedure is performed).

[3] = test system: monosodium urate crystal-induced inflammatory response; assay: Rat air pouch model of crystal-induced arthropathy (Example 3A); assay type: in vivo, Sprague-Dawley rats; details: Lesinurad 10, 30 and 100 mg/kg PO; MSU 150 mg; FIG. 5
Description: Procedure • 1. […] NaOH was added as required to maintain pH 8-9. The solution was filtered and incubated at ambient with slow stirring continuously for 24 hours. • b. Crystals were washed, dried and sterilized by autoclaving. • c. […] The rats were anesthetized and bled for sample from retro-orbital sinus into microtainer tubes. • a. The blood was processed to serum; • b. The serum was transferred to labeled Eppendorf tubes (T=0) and stored at −80° C. • c. […] DAY 0: The rats are anesthetized. • a. The nape of the neck was shaved, cleansed with 70% isopropanol followed by cleansing with Povidone. • b. A 23-gauge needle was attached to a 30 ml syringe fitted with an air filter. • c. 30 ml of sterile air was injected subcutaneously and the rat returned to routine maintenance. • 7. DAY 3: Steps 6a) through 6c) were repeated. • 8. […] Exudates volume was measured and recorded for each animal. • a. […] Mean cell counts and standard deviations were determined for each group. • b. Mean optical absorbance measurements and standard deviations were determined for each group. • c. Group means and standard deviations for TNF-alpha and IL-1 were determined for each group. • d. Statistical significance of treatments on mean cell counts, mean optical absorbance measurements and mean cytokine measurements were determined by comparison of means for treatment and positive control groups with vehicle group.

[4] = test system: TNF-α; assay: In vitro THP-1 (human cell) assay, TNF-α; assay type: cell-based; details: differentiated THP-1 cells, 6 hours, FIG. 3A
Description: Uric acid (2 g, Sigma, Cat #U0881, Log S89329-419) was heated in a flask at 200° C. for 2 hours. Endotoxin free water (396 mL) followed by aqueous sodium hydroxide solution (2.375 mL of 5N or 1.19 mL 10N) were added and heated on a stir plate until the uric acid dissolved. […] The solution was stirred at room temperature for 24 hours and then centrifuged at 1000 g for 10 min. The supernatant was discarded and resuspended in PBS and centrifuged at 1000 g for 10 min; this step was repeated twice. The washed crystals were heated at 60° C. until dry and then autoclaved at 200° C. for 2 hours. The crystals were then weighed and resuspended in PBS at a concentration of 26 mg/ml.
THP-1 cells were differentiated with 0.5 μM of phorbol myristate acetate (PMA) incubated for 3 hours. Cells were then spun down and washed once with HBSS. 1.25×10^6/mL cells were plated in white clear bottom white 96 well plate in 100 μL volume and incubated overnight. The next day the media was aspirated from the wells. 100 μL of 1× Optimem along with the compounds were added.

[5] = test system: gout flares; assay: Phase II clinical trial, gout dose response study: incidence of gout flares (Example 4); assay type: in vivo, human; remark: listed apart in the source

Structure (SMILES): O=C(O)CSc1nnc(Br)n1-c1ccc(C2CC2)c2ccccc12 [Lesinurad, 2-(5-bromo-4-(4-cyclopropylnaphthalen-1-yl)-4H-1,2,4-triazol-3-ylthio)acetic acid]
- Extravasation (optical absorbance at 620 nm), Av ([1]; Lesinurad 0.1 mg/kg p.o.): 1.87
- Extravasation (optical absorbance at 620 nm), individual rats 1-10 ([1]; Lesinurad 0.1 mg/kg p.o.): 1.84 and 1.83 and 1.89 and 2.19 and 1.54 and 2.14 and 1.94 and 1.61 and 1.90 and 1.88
- Exudate volume, Av ([1]; Lesinurad 0.1 mg/kg p.o.): 9.18 mL
- Exudate volume, individual rats 1-10 ([1]; Lesinurad 0.1 mg/kg p.o.): 8 mL (3×) and 9 mL and 11 mL and 10 mL and 9.6 mL and 9.2 mL and 7 mL and 12 mL
- Total white blood cell count, Av ([1]; Lesinurad 0.1 mg/kg p.o.): 0.92 ×10^8
- Total white blood cell count, individual rats 1-10 ([1]; Lesinurad 0.1 mg/kg p.o.): 0.14 ×10^8 (2×) and 0.07 ×10^8 and 2.28 ×10^8 and 2.75 ×10^8 and 0.48 ×10^8 and 0.92 ×10^8 and 0.03 ×10^8 and 2.00 ×10^8 and 0.39 ×10^8
- Extravasation (optical absorbance at 620 nm), Av ([1]; Lesinurad 1 mg/kg p.o.): 1.87
- Extravasation (optical absorbance at 620 nm), individual rats 1-10 ([1]; Lesinurad 1 mg/kg p.o.): 1.79 (2×) and 2.01 and 2.27 and 1.36 and 1.94 and 1.67 and 1.98 and 2.04 and 1.83
- Exudate volume, Av ([1]; Lesinurad 1 mg/kg p.o.): 9.68 mL
- Exudate volume, individual rats 1-10 ([1]; Lesinurad 1 mg/kg p.o.): 9.6 mL and 7 mL (2×) and 13 mL and 5 mL and 10 mL and 12 mL and 14 mL and 7.8 mL and 11.4 mL
- Total white blood cell count, Av ([1]; Lesinurad 1 mg/kg p.o.): 0.41 ×10^8
- Total white blood cell count, individual rats 1-10 ([1]; Lesinurad 1 mg/kg p.o.): 0.19 ×10^8 and 0.44 ×10^8 and 0.68 ×10^8 and 0.01 ×10^8 and 0.48 ×10^8 and 0.54 ×10^8 and 0.26 ×10^8 and 1.17 ×10^8 and 0.34 ×10^8 and 0.02 ×10^8
- Extravasation, in words ([1]; Lesinurad 10 mg/kg): reduced extravasation
- Extravasation (optical absorbance at 620 nm), Av ([1]; Lesinurad 10 mg/kg p.o.): 1.03
- Extravasation (optical absorbance at 620 nm), individual rats 1-10 ([1]; Lesinurad 10 mg/kg p.o.): 1.20 and 0.93 and 0.89 and 0.77 and 0.71 and 0.97 and 0.82 (2×) and 1.94 and 1.25
- Exudate volume, Av ([1]; Lesinurad 10 mg/kg p.o.): 8.29 mL
- Exudate volume, individual rats 1-10 ([1]; Lesinurad 10 mg/kg p.o.): 7 mL and 10 mL and 6 mL (2×) and 8 mL and 9 mL (2×) and 12 mL and 8.4 mL and 7.5 mL
- Total white blood cell count, Av ([1]; Lesinurad 10 mg/kg p.o.): 0.57 ×10^8
- Total white blood cell count, individual rats 1-10 ([1]; Lesinurad 10 mg/kg p.o.): 0.60 ×10^8 and 0.15 ×10^8 and 0.08 ×10^8 and 0.16 ×10^8 and 0.55 ×10^8 and 1.01 ×10^8 and 1.02 ×10^8 and 0.95 ×10^8 and 0.29 ×10^8 and 0.90 ×10^8
- Exudate volume, in words ([1]; Lesinurad 10 mg/kg/day): significantly reduced exudate volume
- Number of white blood cells, in words ([1]; Lesinurad 0.1, 1 and 10 mg/kg/day): significantly lowered the number of white blood cells
- Exudate volume, in words ([1]; Lesinurad 0.1 and 1 mg/kg/day): did not significantly reduce exudate volume
- IL-4 levels in the exudates ([1]; cytokines measured in air pouch exudates): significantly reduced IL-4 levels
- Mean Duration of Flares (by dose at time of flare) ([2]; 200 mg at time of flare): 4 days
- % of patients with Flares by Dose at Time of Flare ([2]; 200 mg at time of flare (6/96)): 6% (6/96)
- Mean Duration of Flares (by dose at time of flare) ([2]; 400 mg at time of flare): 2 days
- % of patients with Flares by Dose at Time of Flare ([2]; 600 mg at time of flare (3/32)): 9% (3/32)
- Mean Duration of Flares ([2]; Randomized dose group 200 mg): 4 days
- % Patients with Flares ([2]; Randomized dose group 200 mg, N 31): 6%
- Mean Duration of Flares ([2]; Randomized dose group 400 mg): 3.8 days
- % Patients with Flares ([2]; Randomized dose group 600 mg, N 32): 13%
- monosodium urate crystal-induced inflammatory response (total white blood cell counts) [3]: blocked
- IC50 [4]: ~52 µM
- % of patients with Flares by Dose at Time of Flare ([5]; 400 mg at time of flare (1/65)): 2% (1/65)
- Mean Duration of Flares (by dose at time of flare) ([5]; 600 mg at time of flare): 1.7 days
- % Patients with Flares ([5]; Randomized dose group 400 mg, N 33): 12%
- Mean Duration of Flares ([5]; Randomized dose group 600 mg): 1.5 days
- Duration of flares, in words ([5]; across dose groups 200-600 mg): shorter at higher doses
- Flares in the first week out of total flares on drug ([5]; first week, patients receiving 200 mg QD): 6/10
